Here are results for 24 compounds from patent US8017775B2, “1-2-dihydroquinoline derivative having glucocorticoid receptor binding activity” (Santen Pharmaceutical Co., Ltd., priority 2005, dated 2011).

Bounds are passed on as bounds.

The target in this experiment is T1, Recombinant human GR (Homo sapiens, UniProt P04150).
T1 construct: purchased Invitrogen P2816
T1 sequence (P04150 1-777): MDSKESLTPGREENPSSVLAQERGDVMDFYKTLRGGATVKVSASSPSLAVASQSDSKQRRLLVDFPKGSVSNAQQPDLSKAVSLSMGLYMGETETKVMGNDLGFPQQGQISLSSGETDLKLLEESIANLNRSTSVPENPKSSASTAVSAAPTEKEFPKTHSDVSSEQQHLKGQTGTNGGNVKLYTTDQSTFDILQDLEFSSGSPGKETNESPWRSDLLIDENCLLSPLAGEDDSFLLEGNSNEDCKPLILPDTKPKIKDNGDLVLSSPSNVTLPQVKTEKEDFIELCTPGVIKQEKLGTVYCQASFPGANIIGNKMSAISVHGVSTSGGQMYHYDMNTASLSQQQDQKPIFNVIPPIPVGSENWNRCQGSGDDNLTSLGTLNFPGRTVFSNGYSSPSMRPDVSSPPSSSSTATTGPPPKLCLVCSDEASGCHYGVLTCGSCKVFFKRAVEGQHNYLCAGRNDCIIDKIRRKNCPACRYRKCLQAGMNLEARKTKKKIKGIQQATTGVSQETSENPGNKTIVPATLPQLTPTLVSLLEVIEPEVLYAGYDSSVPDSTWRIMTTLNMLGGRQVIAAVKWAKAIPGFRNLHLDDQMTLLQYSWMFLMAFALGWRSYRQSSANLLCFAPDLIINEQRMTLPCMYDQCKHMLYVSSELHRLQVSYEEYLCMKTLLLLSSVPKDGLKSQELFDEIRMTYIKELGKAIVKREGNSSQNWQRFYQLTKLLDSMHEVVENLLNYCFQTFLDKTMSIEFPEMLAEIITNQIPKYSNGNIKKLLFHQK
Briefly: GR competitor assay by fluorescence polarization (GR binding ratio). To be noted: positive control 2 mM dexamethasone, a GR binding ratio of 100% or more is indicated by 100%. As to the method: 1. Evaluation Test for Binding Activity to Glucocorticoid Receptor (hereinafter referred to as “GR”)
In order to evaluate a binding activity to GR, a receptor competitor assay was carried out by a fluorescence polarization method. In the assay, a GR competitor assay kit (manufactured by Invitrogen, cat No. P2816) was used, and a procedure was carried out according to the protocol attached to the kit. Hereinafter, the specific method will be described.
GR screening buffer: A buffer containing 10 mM potassium phosphate (pH 7.4), 20 mM sodium molybdate (Na2MoO4), 0.1 mM ethylene diamine tetraacetic acid (EDTA), 5 mM dithiothreitol (DTT), 0.1 mM stabilizing peptide and 2% dimethylsulfoxide was prepared.
4×GS1 solution: Fluormone™ GS1, which is a fluorescent glucocorticoid ligand, was diluted with GR screening buffer, whereby a 4 nM solution was prepared.
4×GR solution: Recombinant human GR was diluted with GR screening buffer, whereby a 16 nM solution was prepared.
After a test compound was dissolved in dimethylsulfoxide, the resulting solution was diluted with GR screening buffer, whereby a 20 μM test compound solution was prepared.
1) The test compound solution was added in an amount of 25 μL or 10 μL into each well of a 96-well or 384-well plate, and then, 4×GS1 solution and 4×GR solution were added in an amount of 12.5 μL or 5 μL into each well, respectively.
2) The plate was incubated in a dark place at room temperature for 2 to 4 hours.
3) By using a multimode plate reader, Analyst™ HT (manufactured by LJL Biosystems), fluorescence polarization of each well was measured. As the blank, a well containing GR screening buffer in place of the test compound and 4×GS1 solution was used.
4) The same procedure as that in the above 1) to 3) was carried out except that GR screening buffer was used in place of the test compound solution, and the obtained result was taken as the negative control.
5) The same procedure as that in the above 1) to 3) was carried out except that 2 mM dexamethasone was used in place of the test compound solution, and the obtained result was taken as the positive control.
A GR binding ratio (%) was calculated from the following equation.
GR binding ratio (%)=100×[1−(fluorescence polarization of test compound solution−fluorescence polarization of positive control solution)/(fluorescence polarization of negative control solution−fluorescence polarization of positive control solution)]
A general note: Fluorescence polarisation rises when a labelled molecule tumbles more slowly, as on binding a larger partner.

On to `COc1ccc(C)cc1NCc1c(-c2ccc(F)cc2OC)ccc2c1C(C)=CC(C)(C)N2` [Compound 6-43, 6-(4-Fluoro-2-methoxyphenyl)-5-(2-methoxy-5-methylphenylaminomethyl)-2,2,4-trimethyl-1,2-dihydroquinoline], for which the “GR Binding ratio (%)” value is at least 100%.

As for `C=CCc1ccccc1OCc1c(-c2cc(Cl)ccc2OC)ccc2c1C(C)=CC(C)(C)N2` [Compound 14-47, 5-(2-Allylphenoxymethyl)-6-(5-chloro-2-methoxyphenyl)-2,2,4-trimethyl-1,2-dihydroquinoline], the “GR Binding ratio (%)” value is at least 100%.

Turning to `COc1ccc(C)cc1OCc1c(-c2ccc(F)cc2OC)ccc2c1C(C)=CC(C)(C)N2` [Compound 3-59, 6-(4-Fluoro-2-methoxyphenyl)-5-(2-methoxy-5-methylphenoxymethyl)-2,2,4-trimethyl-1,2-dihydroquinoline], the “GR Binding ratio (%)” value was at least 100%.

`COc1ccc(Cl)cc1-c1ccc2c(c1COc1ccccc1CCO)C(C)=CC(C)(C)N2` [Compound 3-98, 6-(5-Chloro-2-methoxyphenyl)-5-[2-(2-Hydroxyethyl)phenoxymethyl]-2,2,4-trimethyl-1,2-dihydroquinoline]: the “GR Binding ratio (%)” value was at least 100%.

As for `COc1ccc(F)cc1-c1ccc2c(c1CNc1cc(F)ccc1C)C(C)=CC(C)(C)N2` [Compound 6-78, 6-(5-Fluoro-2-methoxyphenyl)-5-(5-fluoro-2-methylphenylaminomethyl)-2,2,4-trimethyl-1,2-dihydroquinoline], the “GR Binding ratio (%)” value is listed as at least 100%.

Regarding `COc1cc(F)c(F)cc1-c1ccc2c(c1CNc1ccccc1C)C(C)=CC(C)(C)N2` [Compound 6-59, 6-(4,5-Difluoro-2-methoxyphenyl)-5-(2-methylphenylaminomethyl)-2,2,4-trimethyl-1,2-dihydroquinoline], the “GR Binding ratio (%)” value turned out to be 96%.

On to `COc1ccc(OCc2ccccc2)cc1-c1ccc2c(c1COc1cc(F)ccc1C)C(C)=CC(C)(C)N2` [Compound 15-2, 6-(5-Benzyloxy-2-methoxyphenyl)-5-(5-fluoro-2-methylphenoxymethyl)-2,2,4-trimethyl-1,2-dihydroquinoline], for which the “GR Binding ratio (%)” value is given as 76%.

Turning to `COc1ccc([N+](=O)[O-])cc1-c1ccc2c(c1COc1cc(F)ccc1C)C(C)=CC(C)(C)N2` [Compound 14-48, 5-(5-Fluoro-2-methylphenoxymethyl)-6-(2-methoxy-5-nitrophenyl)-2,2,4-trimethyl-1,2-dihydroquinoline], the “GR Binding ratio (%)” value is at least 100%.

As for `COc1cc(F)ccc1-c1ccc2c(c1COC(=O)c1ccc(C)s1)C(C)=CC(C)(C)N2` [Compound 12-19, 6-(4-Fluoro-2-methoxyphenyl)-5-[(5-methylthiophen-2-yl)carbonyloxymethyl]-2,2,4-trimethyl-1,2-dihydroquinoline], the “GR Binding ratio (%)” value is listed as at least 100%.

Take `COc1cc(F)ccc1-c1ccc2c(c1COc1cc(C)cc(C)c1C)C(C)=CC(C)(C)N2` [Compound 3-44, 6-(4-Fluoro-2-methoxyphenyl)-5-(2,3,5-trimethylphenoxymethyl)-2,2,4-trimethyl-1,2-dihydroquinoline]: the “GR Binding ratio (%)” value was 98%.

Take `COc1cc(F)ccc1-c1ccc2c(c1COc1ccccc1C)C(C)=CC(C)(C)N2` [Compound 3-22, 6-(4-Fluoro-2-methoxyphenyl)-5-(2-methylphenoxymethyl)-2,2,4-trimethyl-1,2-dihydroquinoline]: the “GR Binding ratio (%)” value was 99%.

In the case of `COc1cc(F)ccc1-c1ccc2c(c1CNc1cc(C)ccc1C)C(C)=CC(C)(C)N2` [Compound 6-53, 5-(2,5-Dimethylphenylaminomethyl)-6-(4-fluoro-2-methoxyphenyl)-2,2,4-trimethyl-1,2-dihydroquinoline], the “GR Binding ratio (%)” value came out at 95%.

On to `COc1ccc(F)cc1-c1ccc2c(c1COC(=O)c1ccc(C)s1)C(C)=CC(C)(C)N2` [Compound 12-76, 6-(5-Fluoro-2-methoxyphenyl)-5-(5-methylthiophen-2-ylcarbonyloxymethyl)-2,2,4-trimethyl-1,2-dihydroquinoline], for which the “GR Binding ratio (%)” value is given as at least 100%.

For `COc1ccc(Cl)cc1-c1ccc2c(c1COC(=O)c1ccc(C)s1)C(C)=CC(C)(C)N2` [Compound 12-69, 6-(5-Chloro-2-methoxyphenyl)-5-(5-methylthiophen-2-ylcarbonyloxymethyl)-2,2,4-trimethyl-1,2-dihydroquinoline], the “GR Binding ratio (%)” value is reported as at least 100%.

In the case of `COc1cc(F)ccc1-c1ccc2c(c1COc1cc([N+](=O)[O-])ccc1C)C(C)=CC(C)(C)N2` [Compound 3-72, 6-(4-Fluoro-2-methoxyphenyl)-5-(2-methyl-5-nitrophenoxymethyl)-2,2,4-trimethyl-1,2-dihydroquinoline], the “GR Binding ratio (%)” value is recorded as at least 100%.

As for `COc1ccc(Cl)cc1-c1ccc2c(c1COc1cc([N+](=O)[O-])ccc1C)C(C)=CC(C)(C)N2` [Compound 14-12, 6-(5-Chloro-2-methoxyphenyl)-5-(2-methyl-5-nitrophenoxymethyl)-2,2,4-trimethyl-1,2-dihydroquinoline], the “GR Binding ratio (%)” value was at least 100%.

As for `COc1cc(F)ccc1-c1ccc2c(c1COc1cc(Cl)ccc1C)C(C)=CC(C)(C)N2` [Compound 3-56, 6-(4-Fluoro-2-methoxyphenyl)-5-(5-chloro-2-methylphenoxymethyl)-2,2,4-trimethyl-1,2-dihydroquinoline], the “GR Binding ratio (%)” value was 98%.

As to `COc1ccc(F)cc1-c1ccc2c(c1COc1cc(C)ccc1C)C(C)=CC(C)(C)N2` [Compound 14-40, 5-(2,5-Dimethylphenoxymethyl)-6-(5-fluoro-2-methoxyphenyl)-2,2,4-trimethyl-1,2-dihydroquinoline], the “GR Binding ratio (%)” value is at least 100%.

With `COc1cc(F)ccc1-c1ccc2c(c1CNc1cccc(C)c1)C(C)=CC(C)(C)N2` [Compound 6-36, 6-(4-Fluoro-2-methoxyphenyl)-5-(3-methylphenylaminomethyl)-2,2,4-trimethyl-1,2-dihydroquinoline], the “GR Binding ratio (%)” value came to 98%.

With `COc1cc(F)ccc1-c1ccc2c(c1COc1cc([N+](=O)[O-])ccc1C#N)C(C)=CC(C)(C)N2` [Compound 3-91, 5-(2-Cyano-5-nitrophenoxymethyl)-6-(4-fluoro-2-methoxyphenyl)-2,2,4-trimethyl-1,2-dihydraquinoline], the “GR Binding ratio (%)” value was at least 100%.

Take `COc1cc(F)ccc1-c1ccc2c(c1COC(=O)c1ccc3c(c1)OCO3)C(C)=CC(C)(C)N2` [Compound 12-42, 5-[(1,3-Benzodioxol-5-yl)carbonyloxymethyl]-6-(4-fluoro-2-methoxyphenyl)-2,2,4-trimethyl-1,2-dihydroquinoline]: the “GR Binding ratio (%)” value was 99%.

Consider `COc1cc(F)ccc1-c1ccc2c(c1COC(=O)c1ccc(Cl)s1)C(C)=CC(C)(C)N2` [Compound 12-22, 5-[(5-Chlorothiophen-2-yl)carbonyloxymethyl]-6-(4-fluoro-2-methoxyphenyl)-2,2,4-trimethyl-1,2-dihydroquinoline], for which the “GR Binding ratio (%)” value is listed as at least 100%.

Regarding `COc1cc(O)ccc1-c1ccc2c(c1COc1cc(F)ccc1C)C(C)=CC(C)(C)N2` [Compound 5-3, 5-(5-Fluoro-2-methylphenoxymethyl)-6-(4-hydroxy-2-methoxyphenyl)-2,2,4-trimethyl-1,2-dihydroquinoline], the “GR Binding ratio (%)” value is on record as at least 100%.

As for `COc1cc(F)ccc1-c1ccc2c(c1CNc1ccccc1C)C(C)=CC(C)(C)N2` [Compound 6-37, 6-(4-Fluoro-2-methoxyphenyl)-5-(2-methylphenylaminomethyl)-2,2,4-trimethyl-1,2-dihydroquinoline], the “GR Binding ratio (%)” value was at least 100%.
